Test results: publication PMC5570892, “Indole-based perenosins as highly potent HCl transporters and potential anti-cancer agents” (Scientific Reports, 2017)

Key:
[1] = Cl^−/NO3^− ISE assay in POPC:cholesterol (7:3) vesicles; assay type: biochemical; conditions: 0.1 mol% loading, pH 7.2
Description: To further probe other aspects of transmembrane transport mechanism of perenosins, a variety of studies were employed. […] Using the same conditions for sulfate transport, and adding a bicarbonate pulse at 120 s to give a final external bicarbonate concentration of 40 mM, allowed observation of potential Cl^−/HCO3 ^− antiport elicited by 1d and 2–8; no Cl^− efflux was detected, presumably due to the basicity of bicarbonate anion preventing protonation of the imine-N2. Finally, preincorporation of 1d and 2–6 into POPC vesicles followed by performing a similar NMDG-Cl assay, and subsequent dilution of the resulting lipid solution, investigated how perenosins behave in a lipid membrane environment. […] See Supplementary Information for more details of results and experimental details of these assays.
S10. Anion Transport Studies
S10.1. General Procedure for the ISE Assay
Unilamellar vesicles were prepared using previously reported literature procedures7-9. A lipid film of POPC (1-palmitoyl-2-oleoyl-sn-glycero-3-phosphocholine) or POPC:cholesterol (7:3 molar ratio) was prepared from a chloroform solution under reduced pressure and then dried under vacuum for 4 or more hours. The lipid film was rehydrated by vortexing with an internal solution of buffered metal chloride salt (usually 489 mM MCl). The lipid suspension was then subjected to 9 freeze-thaw cycles and left to rest at room temperature for 30 minutes. After this, the suspension was extruded 25 times through a 200 nm polycarbonate membrane resulting in unilamellar vesicles of a mean diameter of 200 nm. […]
The lipid stock was diluted with the external buffer solution to a standard volume (5 mL), to afford a solution with a lipid concentration of 1 mM. The compounds were added as a DMSO solution (10 μL) at the start of the experiment and the resulting chloride efflux was monitored using a chloride selective electrode over 5 minutes. After this time, detergent (50 μL of Triton X-100 (11 w%) in H2O:DMSO (7:1 v/v)) was added to lyse the vesicles and after 7 minutes a final chloride efflux reading was taken. […]

MDA-MB-231 cells = assay: Annexin-V flow cytometric apoptosis assay; assay type: cell-based, human
Description: The specific late onset of affecting cell viability induced by perenosins is interesting, and to the best of our knowledge this phenomenon has not been observed for other anion transporters. […] It is known that synthetic transporters can disrupt ion homeostasis in cells and induce cell death via an apoptotic pathway, [22], [32], [63], [64].
S11.3 Apoptosis Evaluation through Annexin-V Assay
MDA-MB-231 cells (1x10^5 cells) were seeded in 6-well plates and, after 24 h, they were treated with […]
Afterwards, cells were detached, centrifuged at 300 g for 5 min and resuspended in 1 ml of 1X PBS-1% FBS. Then, 100 µl of cell suspension were mixed with Annexin-V kit buffer (1:1; Muse Annexin V & Dead Cell Assay, Merck Millipore, Merck KGaA, Darmstadt, Germany). After 20 min incubation at room temperature, cells were examined on the Muse™ Cell Analyzer (Merck Millipore). All the conditions were assessed in three independent experiments. Results are shown as the mean value ± S.D. and representative results are shown in the […]
Figure S154. Flow cytometry of MDA-MB-231 cells treated with IC50 concentrations of compound 2 and 6 for 48 and 72 hours plus 10 µM of compound 6 for 72 h. Axes show Annexin-V binding versus […]
(1 picture or pasted object on this page, not shown here)

| Structure (SMILES) | chloride efflux in POPC:Cholesterol (7:3) vesicles [1] | apoptosis induction (Annexin-V) (MDA-MB-231 cells; 10 µM) | apoptosis induction (Annexin-V) (MDA-MB-231 cells; at IC50 value, 48 h and 72 h) |
| --- | --- | --- | --- |
| CCCCCc1cc2cc(C)cc(/N=C/c3[nH]c4ccccc4c3C)c2[nH]1 [Perenosin 8] | no chloride efflux | – | – |
| CCCCCc1cc2cc(C)cc(/N=C/c3[nH]c(C)c(CCCCC)c3C)c2[nH]1 [Perenosin 6] | – | increase in both early and late apoptotic cell populations | slight increase in apoptotic cells |
| CCCCCc1cc(/N=C/c2[nH]c3ccccc3c2C)c2[nH]ccc2c1 [Perenosin 7] | no chloride efflux | – | – |
| CCCCCc1cc2cc(C)cc(/N=C/c3[nH]c(C)cc3C)c2[nH]1 [Perenosin 2] | 70% | – | clearly induces cell death by apoptosis |
